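Values below derive from 48-hour exposures of cells grown in 96-well plates, with endpoints linearly interpolated between the two concentrations bracketing the appropriate inhibition level. The concentration for full growth arrest is given as TGI.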

This passage reports TGI results from PubChem BioAssay (NCI).

Test systems include MOLT-4 leukemia; UACC-257 melanoma; 786-0 renal; HOP-62 NSCLC; SK-OV-3 ovarian; COLO 205 colon; NCI-H226 lung; NCI-H460 lung; UACC-62 melanoma; MDA-MB-231 breast.
Holding throughout (experiment): DTP human tumour cell line panel, 48 h

As for `COC(=O)/C(=N\NC(=O)C[N+](C)(C)C)C(C(=O)OC)C(=O)C(=O)Nc1ccccc1C(N)=O` (stereo unspecified), the TGI in the assay with MOLT-4 leukemia, in the assay with UACC-257 melanoma, in the assay on 786-0 renal, in the assay with HOP-62 NSCLC, in the assay on SK-OV-3 ovarian and in the assay with COLO 205 colon was > 100 µM throughout. For the same molecule, the TGI in the assay with NCI-H226 lung, in the assay with NCI-H460 lung and in the assay on UACC-62 melanoma was > 100 µM throughout.
In the case of `O=c1[nH]nc2ccccc2c1Cc1ccccc1`, the concentration for total growth inhibition (TGI) in the assay on MOLT-4 leukemia, in the assay on UACC-257 melanoma, in the assay on 786-0 renal, with HOP-62 NSCLC, in the assay on SK-OV-3 ovarian and in the assay with COLO 205 colon was > 100 µM throughout. In addition, the TGI in the assay with NCI-H226 lung, in the assay with NCI-H460 lung and in the assay with UACC-62 melanoma was > 100 µM in each case.
Turning to `O=C(NC(=O)c1cn(CCN(CCO)C(=O)NCCCCCCNC(=O)N(CCO)CCn2cc(C(=O)NC(=O)OCc3ccccc3)c(=O)[nH]c2=O)c(=O)[nH]c1=O)OCc1ccccc1`, the TGI in the assay with MOLT-4 leukemia, in the assay on UACC-257 melanoma, in the assay with 786-0 renal, with HOP-62 NSCLC, with SK-OV-3 ovarian and in the assay with COLO 205 colon was > 100 µM each time. Besides, the total growth inhibition concentration (TGI) in the assay on NCI-H460 lung and in the assay on UACC-62 melanoma was > 100 µM throughout.
On to `Clc1ccc(N=Nc2nc3ccccc3nc2N=Nc2ccc(Cl)cc2Cl)c(Cl)c1`, for which the concentration for total growth inhibition (TGI) with MOLT-4 leukemia, in the assay on UACC-257 melanoma, with 786-0 renal, in the assay with HOP-62 NSCLC, with COLO 205 colon and in the assay on NCI-H226 lung was > 100 µM in each case. For the same molecule, in the assay on NCI-H460 lung, the TGI (in general, the concentration at which net growth stops) was > 100 µM.
On to `CCN(CC)CCOc1ccc(CCc2cc(OC)c(OC)c(OC)c2)cc1`, for which the TGI is 85.2 µM with MOLT-4 leukemia; 69.9 µM in the assay on UACC-257 melanoma; > 100 µM with 786-0 renal; 81.4 µM in the assay with HOP-62 NSCLC; 31 µM in the assay with COLO 205 colon; > 100 µM in the assay on NCI-H226 lung. Besides, the figures for the TGI with NCI-H460 lung and in the assay on UACC-62 melanoma were > 100 µM and 66.3 µM, respectively.
With `Cc1ccc(SSc2ccc(C)cc2C(=O)O)c(C(=O)O)c1`, the TGI with MOLT-4 leukemia, in the assay with UACC-257 melanoma, in the assay with 786-0 renal, with HOP-62 NSCLC, with SK-OV-3 ovarian and with COLO 205 colon was > 100 µM each time. Besides, the total growth inhibition concentration (TGI) with NCI-H226 lung, in the assay with NCI-H460 lung and in the assay with UACC-62 melanoma was > 100 µM throughout.
Take `C=CCNC(=O)N(CCCC(NC(C)=O)C(=O)NCc1ccccc1)Cc1ccccc1` (stereo unspecified): the TGI with MOLT-4 leukemia, with UACC-257 melanoma, in the assay with 786-0 renal, in the assay with HOP-62 NSCLC, in the assay with SK-OV-3 ovarian and with COLO 205 colon was > 100 µM in each case. The TGI in the assay with NCI-H226 lung, in the assay on NCI-H460 lung and in the assay with UACC-62 melanoma was > 100 µM in each case.
On to `Cc1oc2c(C)c3oc(=O)cc(C)c3cc2c1CN1C(=O)C2OCCOCCOCCOCCOCCO[C@H]2C1=O` (stereo partly specified), for which the concentration for total growth inhibition (TGI) with MOLT-4 leukemia, in the assay on UACC-257 melanoma, in the assay with 786-0 renal, in the assay with HOP-62 NSCLC, in the assay with SK-OV-3 ovarian and in the assay on COLO 205 colon was > 100 µM throughout. Moreover, the concentration for total growth inhibition (TGI) in the assay on NCI-H226 lung, in the assay on NCI-H460 lung and in the assay on UACC-62 melanoma was > 100 µM in each case.
In the case of `COc1ccc2c(c1)[n+]([O-])c(-c1ccc(OC)c(OC)c1)c(N)[n+]2[O-]`, the TGI in the assay with MOLT-4 leukemia was > 100 µM; in the assay on UACC-257 melanoma it was > 100 µM; in the assay with 786-0 renal, > 100 µM; in the assay with HOP-62 NSCLC, > 100 µM; in the assay with SK-OV-3 ovarian it was > 100 µM; in the assay on COLO 205 colon, 34.5 µM. The concentration for total growth inhibition (TGI) with NCI-H226 lung, with NCI-H460 lung and in the assay on UACC-62 melanoma was > 100 µM each time.
In the case of `COc1ccc2c(=O)cc(-c3ccncc3)oc2c1OC`, the TGI in the assay with MOLT-4 leukemia was 41.7 µM; with UACC-257 melanoma, > 100 µM; in the assay with 786-0 renal, > 100 µM; with HOP-62 NSCLC, > 100 µM; with SK-OV-3 ovarian, > 100 µM; in the assay on COLO 205 colon it was 30.8 µM. For the same molecule, the TGI was 72.8 µM with NCI-H460 lung, > 100 µM with MDA-MB-231 breast and 32.3 µM in the assay on UACC-62 melanoma.
With `CN(C)CCNC(=O)c1cc([N+](=O)[O-])cc2c1Oc1ccccc1O2`, the total growth inhibition concentration (TGI) with MOLT-4 leukemia was 51.1 µM; in the assay on UACC-257 melanoma, > 100 µM; with 786-0 renal, > 100 µM; in the assay on HOP-62 NSCLC, > 100 µM; with COLO 205 colon, 33.3 µM; with NCI-H226 lung, 50 µM. The TGI is > 100 µM in the assay with NCI-H460 lung and 39.2 µM with UACC-62 melanoma.
On to `COC1OC(CBr)C(OC(=O)c2ccccc2)C(O)C1Br` (stereo unspecified), for which the TGI in the assay on MOLT-4 leukemia was > 100 µM; with UACC-257 melanoma, > 10 µM; with 786-0 renal, > 100 µM; with HOP-62 NSCLC it was > 100 µM; in the assay on COLO 205 colon, > 100 µM; with NCI-H226 lung it was > 100 µM. The total growth inhibition concentration (TGI) in the assay on NCI-H460 lung and in the assay on UACC-62 melanoma was > 100 µM throughout.
Regarding `O=C1NC2(CCCCCC2)C2CCCCCCC12O` (stereo unspecified), the total growth inhibition concentration (TGI) with MOLT-4 leukemia, in the assay with UACC-257 melanoma, in the assay on 786-0 renal, with HOP-62 NSCLC, in the assay with SK-OV-3 ovarian and with COLO 205 colon was > 100 µM throughout. For the same molecule, the TGI in the assay on NCI-H460 lung and with UACC-62 melanoma was > 100 µM in each case.
`Cc1cc2c(C)nn(Cc3ccccc3)c2c(C(N)=O)c1C`: the total growth inhibition concentration (TGI) in the assay on MOLT-4 leukemia, with UACC-257 melanoma, in the assay on 786-0 renal, in the assay with HOP-62 NSCLC, in the assay on SK-OV-3 ovarian and with COLO 205 colon was > 100 µM in each case. For the same molecule, the concentration for total growth inhibition (TGI) in the assay with NCI-H460 lung and with UACC-62 melanoma was > 100 µM in each case.
With `c1ccc(C(c2ccccc2)c2cccnc2)cc1`, the TGI with UACC-257 melanoma, in the assay with 786-0 renal, in the assay on HOP-62 NSCLC, in the assay with SK-OV-3 ovarian, in the assay with COLO 205 colon and in the assay with NCI-H226 lung was > 100 µM throughout. For the same molecule, the TGI with NCI-H460 lung and in the assay on UACC-62 melanoma was > 100 µM in each case.
